Data published in US20150125452A1, “COMBINATION TREATMENTS COMPRISING C-MET ANTAGONISTS AND B-RAF ANTAGONISTS” (GENENTECH, INC., priority 2011, published 2015).
Entries after “also recorded” stand apart in the source; their conditions may differ.

Key:
Type in all cases: cell-based, Human
[1] = test system: AU565 HER2 amplified breast cancer cells; test: Syto 60 viability and long-term staining with lapatinib and ligands
Procedure: FIGS. 3A-3G: HGF promoted lapatinib resistance in HER2 amplified cell lines. […] HGF rescue is indicated, black squares indicates partial rescue as determined by the initial screen (FIG. 1B). […] Cells were treated every three days for the indicated times. […] FIG. 3D, Immunoblots showing the re-activation of pAKT and pERK in two MET positive (AU565, HCC1954) and one MET negative (BT474) HER2 amplified cell lines. […] FIG. 3E, Representative slides showing MET expression in HER2 positive (3+) breast cancer tissues. FIG. 3F, selection of higher MET expressing AU565 cells following 3× treatments with lapatinib (1 μM) and HGF (50 ng/mL). FIG. 3G. […] Cells were treated twice weekly for the indicated times.
AU565 sells were co-treated with lapatinib (1 μM) in combination with 10 ng/mL NRG1 or FGF. […] Cells were treated with the appropriate kinase inhibitors in the presence of HGF (50 ng/mL). Cells were then treated with either 100 nM PI3K inhibitor (BEZ235) or MAPK inhibitor (AZD6244). Error bars represent mean+/−s.e.m.
(§1) Cell viability was assessed using the nucleic acid stain Syto 60 (Invitrogen). Cells (3000-5000 per well) were seeded into 96 well plates and allowed to adhere overnight. The next day, cells were treated with (or without) 50 ng/mL RTK ligand and concomitantly exposed to an increasing concentration range of the relevant kinase inhibitor. Following 72 hours drug exposure, cells were fixed in 4% formaldehyde, stained with Syto 60 and cell number was assessed using an Odyssey scanner (Li-Cor). Cell viability was calculated by dividing the fluorescence obtained from the drug-treated cells by the fluorescence obtained from the control (no drug) treated cells.

[2] = test system: kinase-addicted cancer cell lines; test: RTK ligand matrix screen, Syto 60 cell viability
Procedure: as §1
Cell lines. Human cancer cell lines were obtained and tested for sensitivity using an automated platform as previously described (Johannessen, C. M. et al. COT drives resistance to RAF inhibition through MAP kinase pathway reactivation. Nature 468, 968-972, doi:10.1038/nature09627 (2010)). Cell lines were maintained at 37° C. in a humidified atmosphere at 5% CO2 and grown in RPMI 1640 or DMEM/F12 growth media (GIBCO) supplemented with 10% fetal bovine serum (GIBCO), 50 units/mL penicillin and 50 μg/mL streptomycin (GIBCO).
Using 41 different human tumor-derived cell lines with previously defined kinase dependency^7-9, we undertook a “matrix analysis” to examine the effects of 6 different RTK ligands (HGF, EGF, FGF, PDGF, NRG1, IGF)—known to be widely expressed in cancer cells and tumor stroma^10—on drug response. Specifically, we quantified the effect of exposing these cancer cell lines (e.g., AU565 (HER2 amp)) to each ligand on the IC50 for a kinase inhibitor (e.g., lapatinib) that otherwise potently suppresses their growth within 72 hours (FIG. 1A). Nearly all of the kinase-dependent cancer cell lines tested, which included cells derived from multiple tissue types and with distinct kinase dependencies (EGFR, HER2, BRAF, MET, ALK, PDGFR, and FGFR), could be rescued from drug-induced growth inhibition by one or more RTK ligands, highlighting the potentially broad contribution of these ligands to the response to selective kinase inhibitors in kinase-addicted tumor cells (FIG. 1B).

[3] = test system: H3122 EML4-ALK translocated NSCLC cancer cell line; test: Cell viability assay with TAE684 or crizotinib and HGF; conditions: TAE684, 50 ng/mL HGF, 72 h
Procedure: Error bars represent mean+/−s.e.m.
as §1, with “Following 72 hours drug exposure, cells were fixed in 4% formaldehyde, stained with Syto 60 and cell number was assessed using an Odyssey scanner (Li-Cor).” left out

[4] = test system: BRAF mutant melanoma cell lines; test: Syto 60 cell viability, HGF rescue from PLX[…]; conditions: additional twelve cell lines
Procedure: Cells were treated twice weekly for the indicated times. […] Error bars represent mean+/−s.e.m.
as §1, with “Following 72 hours drug exposure, cells were fixed in 4% formaldehyde, stained with Syto 60 and cell number was assessed using an Odyssey scanner (Li-Cor).” left out

[5] = test system: H2228 EML4-ALK translocated NSCLC cells; test: Syto 60 viability and long-term staining with TAE684 and HGF
Procedure: Cells were co-treated with 50 ng/mL HGF. Error bars represent mean+/−s.e.m. […] FIG. 8C, Syto 60 staining of H2228 EML4-ALK translocated NSCLC cells treated with TAE684 (2 μM) in the presence and absence of HGF (50 ng/mL) as indicated. Cells were treated every 3 days for 9 days. FIG. 8D, Syto 60 staining of H358 EGF-like ligand-driven NSCLC cells treated with Erlotinib (5 μM) in the presence and absence of HGF (50 ng/mL) as indicated. Cells were treated every 3 days for 9 days.
FIG. 16: Syto 60 staining of H2228 EML4-ALK translocated NSCLC cells treated with TAE684 (2 μM) in the presence or absence of HGF (50 ng/mL) as indicated. Cells were treated every 3 days for 9 days.
as §1

HGF: recombinant human RTK ligand (MET ligand) purchased from Peprotech
MET expression of cell population after co-treatment ([1]; 9-day lapatinib and HGF co-treatment): increased MET expression
resistance to lapatinib on longer-term co-treatment ([1]; 12 days, lapatinib 1 μM, HGF 50 ng/mL): rapidly promoted resistance to lapatinib
effect of RTK ligand on conferring drug resistance to kinase inhibitors ([2]; 50 ng/mL RTK ligand, 72 h, 41 cell lines): most broadly active ligands
effect of HGF on response to PLX[…] ([2]; BRAF mutant PLX[…]-sensitive melanoma and colorectal cell lines): significantly attenuated the response
rescue despite activation of receptor and a downstream survival effector ([2]; H2228 and H358 cells with HGF, COLO-201 cells with NRG1): not sufficient to rescue cells from kinase inhibition
rescue from ALK inhibition by HGF [3]: efficiently rescued from ALK inhibition
number of additional BRAF mutant melanoma lines with HGF-attenuated PLX[…] sensitivity [4]: 5 of the 12
effect of HGF on longer-term TAE684 treatment ([5]; TAE684 2 μM, HGF 50 ng/mL, every 3 days for 9 days): rescued; also recorded: prevented acquired resistance to TAE684
rescue from ALK inhibition by HGF at 72 hour time-point ([5]; TAE684, HGF, 72 h): not rescued from ALK inhibition
